From PubChem BioAssay (NCI)
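Dose response: 5 concentrations. Exposure: 48 h. Format: 96-well plates. Endpoint: linear interpolation; highest concentration if not reached. GI50 marks 50% less growth. At the TGI there is no net growth.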

How the values were obtained:
Assay in all cases: NCI tumour cell line growth inhibition, 48 h
RXF 393 renal = system: RXF 393 renal
MCF7 breast = system: MCF7 breast
UO-31 renal = system: UO-31 renal
P388/ADR leukemia = system: P388/ADR leukemia
SNB-78 CNS = system: SNB-78 CNS
M19-MEL melanoma = system: M19-MEL melanoma
DMS 273 small cell lung = system: DMS 273 small cell lung
DLD-1 colon = system: DLD-1 colon
KM20L2 colon = system: KM20L2 colon
P388 leukemia = system: P388 leukemia
HOP-18 NSCLC = system: HOP-18 NSCLC
DMS 114 small cell lung = system: DMS 114 small cell lung
XF 498 CNS = system: XF 498 CNS
SN12K1 renal = system: SN12K1 renal
LXFL 529 NSCLC = system: LXFL 529 NSCLC
RXF-631 renal = system: RXF-631 renal

SMILES	TGI (RXF 393 renal) [µM]	TGI (MCF7 breast) [µM]	TGI (UO-31 renal) [µM]	other results
CS(C)(=O)=N/C=C\C(=O)C(Cl)(Cl)Cl	> 100	> 100	> 100	
C=C1CC(OC(C)=O)/C=C(/C)CCC(C(C)(C)O)CC1O (stereo not drawn)	> 100	> 100	> 100	
CCN(CC)CCN1C(=O)c2cccc3c(-c4ccc5c(c4)ncn5C4CCCCC4)ccc(c23)C1=O		4.65	2.28	GI50 (MCF7 breast): 1.74 µM; GI50 (UO-31 renal): 0.583 µM
C1CNCCN2CCCNCCN(C1)CC2	> 100	> 100	> 100	
CC(C)OP(=O)(OC(C)C)C(C(F)(F)F)C(F)(F)F	> 100	> 100	> 100	
Cc1csc2c(P(=O)(OC(C)C)OC(C)C)c(-c3ccccc3)cn12	33.7	34.3	31.8	
O=C1CCc2c3c(c4c([nH]c5ccccc54)c2CC1)C(=O)NC3=O	32.2	81	14.7	
CN(c1c(Cl)cccc1Cl)S(=O)(=O)c1ccccc1[N+](=O)[O-]	> 100	> 100	> 100	
CCN(CC)CCn1ncc2ccc3c(c(=O)c4cccnc4n3CCN(CC)CC)c21	2.8	4.62	> 8.52	
Nc1[nH]c(=O)nc2sc3c(c12)CCCC3	> 100	> 100	> 100	
C#CCNC(=O)CCC(N)C(=O)O (stereo not drawn)	> 100	> 100	> 100	TGI (P388/ADR leukemia): > 100 µM; TGI (SNB-78 CNS): > 100 µM; TGI (M19-MEL melanoma): > 100 µM; TGI (DMS 273 small cell lung): > 100 µM; TGI (DLD-1 colon): > 100 µM; TGI (KM20L2 colon): > 100 µM; TGI (P388 leukemia): > 100 µM; TGI (HOP-18 NSCLC): > 100 µM; TGI (DMS 114 small cell lung): > 100 µM; TGI (XF 498 CNS): > 100 µM; TGI (SN12K1 renal): > 100 µM
CN(C)c1nc(N(C)C)nc(N(C)CN(C)c2ccccc2)n1	> 100		> 100	TGI (LXFL 529 NSCLC): > 100 µM; TGI (SNB-78 CNS): > 100 µM; TGI (M19-MEL melanoma): > 100 µM; TGI (HOP-18 NSCLC): > 100 µM; TGI (DMS 114 small cell lung): > 100 µM; TGI (XF 498 CNS): > 100 µM
CCCCc1ccc(Nc2nc3c(ncn3C3OC(COC(C)=O)C(OC(C)=O)C3OC(C)=O)c(=O)[nH]2)cc1 (stereo not drawn)	41.7	63.2	> 100	
Cc1ccnc(NS(=O)(=O)c2ccc(NC(=O)c3ccc4nc5ccccc5c(Nc5ccc(S(=O)(=O)Nc6nccc(C)n6)cc5)c4c3)cc2)n1	51.2	75.1	> 100	
CC(=O)OCC1C(C(C)OC(C)=O)CCC2C1CCC1(C)C(OC(C)=O)CCC21 (stereo not drawn)		33.8	> 100	
CN(C)C(=S)Nc1nnc(NC23CC4CC(CC(C4)C2)C3)s1	34.1		25.2	TGI (SNB-78 CNS): > 100 µM; TGI (M19-MEL melanoma): 43.6 µM; TGI (DMS 273 small cell lung): 55.3 µM; TGI (KM20L2 colon): 24.8 µM; TGI (DMS 114 small cell lung): 63.1 µM
O=C1C=C2S[C@H]3C[C@]2(C=C1Br)c1c(c(O)c2c4c1=NCCC=4C=N2)N3	0.947		2.94	TGI (LXFL 529 NSCLC): 0.395 µM; TGI (SNB-78 CNS): 3.79 µM; TGI (DMS 273 small cell lung): 2.39 µM; TGI (DLD-1 colon): 2.06 µM; TGI (KM20L2 colon): 1.93 µM; TGI (HOP-18 NSCLC): 3.23 µM; TGI (DMS 114 small cell lung): 0.404 µM; TGI (XF 498 CNS): 2.78 µM
O=C(N=Nc1ccc([N+](=O)[O-])cc1)NNc1ccc([N+](=O)[O-])cc1		22.9	32.6	
C=CCCCCOC1C=CC(OC(C)=O)C(COC(C)=O)O1 (stereo not drawn)	> 100	> 100	> 100	
NNC(N)=Nc1cccc2ccccc12	> 100	> 100	> 100	
O=[N+]([O-])c1cc2n[nH]nc2c2nonc12		21.5	38.6	
C=C1C(=O)OC2/C=C(\C)CC/C=C(/C)CC(OC(=O)/C(=C/CO)CO)C12 (stereo not drawn)	23.7	48.7	33.8	
O=C(CC(=O)c1ccncc1)c1ccccc1	> 100	> 100	> 100	
COC(=O)N1CC[C@@H]2CCC=C(c3cccc4c3OCO4)[C@@H]21	> 100	> 100	> 100	

SMILES	TGI (RXF 393 renal) [µM]	TGI (MCF7 breast) [µM]	TGI (UO-31 renal) [µM]	other results
O=C(O)CC(NC(=O)C(F)(F)F)C(=O)NC1Cc2ccccc2OC1=O (stereo not drawn)	> 100	> 100	> 100	
COc1ccc2nc(-c3ccc(OC(=O)N(C)C)cc3)cn2c1		> 100		
CCCCCCc1nn2c(-c3ccc(C)cc3)nnc2s1	> 100	> 100	> 100	
CSCCC(NC(=O)C(Cc1ccccc1)NC(=O)CNC(=O)CNC(=O)C(N)Cc1ccc(O)cc1)C(=O)O (stereo not drawn)	> 100	> 100	> 100	TGI (P388/ADR leukemia): > 100 µM; TGI (SNB-78 CNS): > 100 µM; TGI (M19-MEL melanoma): > 100 µM; TGI (DMS 273 small cell lung): > 100 µM; TGI (KM20L2 colon): > 29 µM; TGI (P388 leukemia): > 100 µM; TGI (HOP-18 NSCLC): > 100 µM; TGI (DMS 114 small cell lung): > 100 µM; TGI (SN12K1 renal): > 100 µM
CCOC(=O)C(Cc1ccc2c(c1)CCC2)(Cc1ccc2c(c1)CCC2)C(=O)OCC	89.9	> 100	> 100	
Cc1cccc2c1Oc1cc(Cl)ccc1C2NC(=O)CCN1CCCCC1 (stereo not drawn)		33.6	29.2	
COc1ccc(C2CCc3nc4nc(N)nc(N)c4cc3C2)cc1 (stereo not drawn)	37.2	28.8		
CCOC(=O)C(SCCO)C(C(=O)OCC)n1ccc(N)nc1=O (stereo not drawn)		> 100	> 100	
NS(=O)(=O)c1nnc(NC(=O)CCC(=O)O)s1	> 100	> 100	> 100	
CCCCCCCCCc1cc(O)c(O)cc1CCCCCCCCC	> 10	> 10	> 10	
COc1cc2c(cc1C)NC(=O)/C2=C/c1c(Cl)[nH]c2cc(C)c(OC)cc12	22.1	20.4	23.4	
NC(=O)c1cnc2sc3ccccc3n2c1=O	> 100	> 100	> 100	
Nn1c(CNc2ccc(-c3nnc(Nc4ccc(Cl)cc4)n3N)cc2)nnc1Nc1ccc(Cl)cc1	> 100	> 100	> 100	
Cc1nn2c(N)cc(=O)nc2nc1/C=C/c1ccc(N(C)C)cc1	> 100	> 100	> 100	
CC1=CC(c2ccccc2)OP1(=O)c1ccccc1 (stereo not drawn)		> 100		
COCCc1c(C)c(C#N)c2n(C)c3ccccc3n2c1=O	> 10	> 10		
CSc1ccc2c(c1)c(CCN)c(C)n2Cc1ccc(Cl)c(Cl)c1	3.12		3.01	GI50 (RXF 393 renal): 1.66 µM; GI50 (UO-31 renal): 1.59 µM
NS(=O)(=O)c1ccc(NNC(=O)c2cccc3c(=O)c4ccccc4[nH]c23)cc1	> 100	> 100	> 100	
CCOC(=O)c1ccc(N=C2SC(=S)N(c3ccc(F)cc3)C2=Nc2ccc(C(=O)OCC)cc2)cc1	23.3	42.2	28	
CCN(CC)CCN1c2ccccc2Sc2ccc3ccccc3c21	9.5	23.6	19.1	
c1ccc(Cc2cccc3cc(-c4ccc(-c5ccccc5)cc4)[nH]c23)cc1		> 100	> 100	
O=C(N/N=C(/COc1cccc(Cl)c1)N=Cc1ccncc1)c1ccncc1	> 100	> 100		
Clc1cc2nc(C3CCCO3)[nH]c2cc1Cl (stereo not drawn)	> 100	> 100	53.9	
NCCCNCCSSCc1ccccc1CSSCCNCCCN	> 100		> 100	TGI (LXFL 529 NSCLC): > 100 µM; TGI (SNB-78 CNS): > 100 µM; TGI (RXF-631 renal): > 100 µM; TGI (M19-MEL melanoma): > 100 µM; TGI (DMS 273 small cell lung): > 100 µM; TGI (DLD-1 colon): > 100 µM; TGI (KM20L2 colon): > 100 µM; TGI (HOP-18 NSCLC): > 100 µM; TGI (DMS 114 small cell lung): > 100 µM; TGI (XF 498 CNS): > 100 µM

SMILES	TGI (RXF 393 renal) [µM]	TGI (MCF7 breast) [µM]	TGI (UO-31 renal) [µM]	other results
CSC1=N/C(=C\c2cccs2)C(=O)N1CN1CCOCC1		> 100	> 100	
N#CC12COC3(CCCCC3C1(C#N)C#N)OC2=N (stereo not drawn)	25.8	29.5	30.6	
O=C(NC(=O)c1cn(CCN2CCNCC2)c(=O)[nH]c1=O)OCc1ccccc1				TGI (LXFL 529 NSCLC): > 100 µM; TGI (SNB-78 CNS): > 100 µM; TGI (M19-MEL melanoma): > 100 µM; TGI (DLD-1 colon): > 100 µM; TGI (DMS 114 small cell lung): > 100 µM
CC1=C(C)C(=O)OC(C(C)(O)C2(O)CCC3(O)C4CC(Cl)C5(O)C(O)C=CC(=O)C5(C)C4CCC32C)C1 (stereo not drawn)	56.1	> 100	> 100	
CCN(CC)CC(O)c1ccc2ccc3ccccc3c2c1 (stereo not drawn)	31.4	28.2	24.1	
O=C1C(NS(=O)(=O)c2ccccc2)=C(n2cnc3ccccc32)C(=O)c2ccccc21	98.2	> 100	> 100	
O=C(CSc1nc2ccc(I)cc2c(=O)n1Cc1ccccc1)N/N=C/c1ccccc1	26.7	> 100		
CCCS(=O)(=O)O	> 100	> 100	> 100	
CN(Cc1cnc2nc(N)nc(N)c2n1)c1ccc(C(=O)NC(CCS(=O)(=O)O)C(=O)O)cc1 (stereo not drawn)		> 100	> 100	
CN1CN(c2ccccc2)C2(CCNCC2)C1=O	> 100	> 100	> 100	
COc1cc(Cn2c3c(c4c(CN(C)C)c(O)ccc42)C(=O)c2ccccc2C3=O)cc(OC)c1		29.4	27.7	
CC(C)(C)OC(=O)N1C(C2=COc3ccccc3O2)=COc2ccccc21	22.5	60.2	> 100	
C=CCN1CCC(OC(=O)C(O)(/C=C\CC)C2CCCC2)CC1 (stereo not drawn)	> 100	> 100	> 100	
COC(=O)C12CCC(C(=O)OC)(Cc3c(c4ccccc4n3S(=O)(=O)c3ccccc3)C1)C2=O (stereo not drawn)	24.1	> 100	> 100	
O=c1oc2ncccc2n1Cc1ccc([N+](=O)[O-])cc1	> 100	> 100	> 100	
COc1ccc2c(c1)/C(=C(\C(Cl)=C(\Cl)N1CCCCC1)[N+](=O)[O-])N2	> 100	> 100	> 100	
Cc1ccc2nc3c(C(=O)NCCN(C)C)cccc3cc2c1	7.02	11.6	2.96	TGI (P388/ADR leukemia): 4.69 µM; TGI (SNB-78 CNS): 15 µM; TGI (M19-MEL melanoma): 4.66 µM; TGI (DMS 273 small cell lung): 6.02 µM; TGI (DLD-1 colon): 8.85 µM; TGI (KM20L2 colon): 5.58 µM; TGI (HOP-18 NSCLC): 5.76 µM; TGI (DMS 114 small cell lung): 5.32 µM; TGI (XF 498 CNS): 3.67 µM; TGI (SN12K1 renal): 3.35 µM
COc1ccc2c(c1)/C(=C(\C(Cl)=C(Cl)Cl)[N+](=O)[O-])N2	> 100	> 100	> 100	
CCCCC1Cc2cc(O)ccc2-c2n1c1cc(O)ccc1[n+]2C (stereo not drawn) (tested in a mixture with another compound)	> 90.3	> 72.7	> 100	
CCN(CC)CCNc1ccc([N+](=O)[O-])c2nc3ccccc3c(N)c12	1.52		5.94	
Cc1c2c(c(C)c3c[n+](C)ccc13)Oc1ccccc1O2	> 100	> 63	> 100	
O=C(Nc1ccc(Cl)cc1)c1cc(S(=O)(=O)Nc2n[nH]c(=O)[nH]2)c(SSc2cc(Cl)c(C(=O)Nc3ccc(Cl)cc3)cc2S(=O)(=O)Nc2n[nH]c(=O)[nH]2)cc1Cl		> 100	> 100	
Oc1c(C(O)(c2ccccc2)c2ccc3ccccc3c2O)ccc2ccccc12	25.3	24	24.7	
